# According to the NIST ThermoML archive (doi:10.1016/j.jct.2014.02.003):
# ± gives the expanded uncertainty stated by the source.
# Assay: molar enthalpy of vaporization or sublimation
# Details: Crystal, Knudsen effusion method coupled with mass spectrometer, from logarithm of peak intensity
structure (smiles),measurement,setting,value
N[C@@H](Cc1ccc(O)cc1)C(=O)O [3-(p-hydroxyphenyl)-L-alanine],molar enthalpy,471.15 K,47.8 ± 0.43 kcal/mol
N[C@@H](Cc1ccccc1)C(=O)O [L-phenylalanine],molar enthalpy,418.15 K,37.8 ± 0.478 kcal/mol
N[C@@H](Cc1c[nH]c2ccccc12)C(=O)O [L-tryptophan],molar enthalpy,450.15 K,44.1 ± 0.55 kcal/mol
O=C(O)c1ccccc1 [benzoic acid],molar enthalpy,308.21 K,21.7 ± 0.454 kcal/mol
